According to ChEMBL document CHEMBL1201862, “PubChem BioAssay data set” (2004):
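Interpolation was linear, between the two tested concentrations surrounding the appropriate level; five concentrations were tested over 48 hours in 96-well plates. GI50 is the concentration that inhibits growth by half.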 The source made the active and inactive calls. Rule as the data show it: active = GI50 up to about 1.1 µM and inactive = higher.

What was measured:
Assay in all cases: NCI anticancer screen, dose series, 48 h
SN12C = test system: SN12C
HOP-62 = test system: HOP-62
SK-OV-3 = test system: SK-OV-3
ACHN = test system: ACHN
UACC-257 = test system: UACC-257
A549 = test system: A549
A498 = test system: A498
OVCAR-3 = test system: OVCAR-3
SF-268 = test system: SF-268
NCI-H23 = test system: NCI-H23
NCI-H460 = test system: NCI-H460
SR = test system: SR
DLD-1 = test system: DLD-1
SK-MEL-28 = test system: SK-MEL-28
UACC-62 = test system: UACC-62
EKVX = test system: EKVX
SNB-19 = test system: SNB-19

Measured: GI50

O=C(OCc1ccccc1C1CSCSC1)c1cc(C(=O)OCc2ccccc2C2CSCSC2)c(C(=O)OCc2ccccc2C2CSCSC2)cc1C(=O)OCc1ccccc1C1CSCSC1
inactive: SN12C > 100 µM | HOP-62 > 100 µM | SK-OV-3 > 100 µM | ACHN > 100 µM | UACC-257 > 100 µM | A549 > 100 µM | A498 > 100 µM | OVCAR-3 > 100 µM | SF-268 > 100 µM | NCI-H23 > 100 µM | NCI-H460 > 100 µM | SR > 100 µM | DLD-1 > 100 µM | SK-MEL-28 > 100 µM | UACC-62 > 100 µM

Cc1nc(N2N=C(c3ccc(Cl)cc3)CCC2=O)sc1[N+](=O)[O-]
inactive: SN12C > 100 µM | HOP-62 > 100 µM | SK-OV-3 > 100 µM | EKVX 67.6 µM | SNB-19 > 100 µM | ACHN > 100 µM | UACC-257 > 100 µM | A549 > 100 µM | OVCAR-3 > 100 µM | SF-268 > 100 µM | NCI-H23 > 100 µM | NCI-H460 > 100 µM | SR > 100 µM | DLD-1 > 100 µM | SK-MEL-28 > 100 µM | UACC-62 > 100 µM

OCC(O)C(O)C(O)C(O)c1nnn[nH]1 (stereo unspecified)
inactive: SN12C > 100 µM | HOP-62 > 100 µM | SK-OV-3 > 100 µM | EKVX > 100 µM | ACHN > 100 µM | A549 > 100 µM | OVCAR-3 > 100 µM | SF-268 > 100 µM | NCI-H23 > 100 µM | NCI-H460 > 100 µM | SR > 100 µM | DLD-1 > 100 µM | UACC-62 > 100 µM

C/C(=N\Nc1ccccc1)c1sc(-c2nc(C)c(/C(C)=N/Nc3ccccc3)s2)nc1C
inactive: SN12C > 78.2 µM | SK-OV-3 58.5 µM | EKVX 24.7 µM | SNB-19 > 63.1 µM | ACHN 10.4 µM | UACC-257 35.1 µM | A549 13.5 µM | A498 > 46.1 µM | OVCAR-3 23.6 µM | NCI-H23 32.7 µM | NCI-H460 42.2 µM | SR 25.6 µM | DLD-1 22.1 µM | SK-MEL-28 > 48.2 µM | UACC-62 4.07 µM

COc1cc(-c2nccc3cc(OC)c(OC)cc23)ccc1O
inactive: SN12C 48.2 µM | HOP-62 > 100 µM | SK-OV-3 68.2 µM | EKVX 35.6 µM | SNB-19 68.1 µM | ACHN 44.9 µM | UACC-257 69.2 µM | A549 > 100 µM | OVCAR-3 49.3 µM | NCI-H23 32.4 µM | NCI-H460 27.8 µM | SR 30.3 µM | DLD-1 76.4 µM | SK-MEL-28 > 100 µM | UACC-62 30 µM

Brc1ccccc1C1SCc2nc3ccccc3n21 (stereo unspecified)
inactive: SN12C 12.8 µM | HOP-62 19 µM | SK-OV-3 20.7 µM | EKVX 17.3 µM | ACHN 16.4 µM | A549 26.1 µM | OVCAR-3 13.5 µM | SF-268 20 µM | NCI-H23 11.7 µM | NCI-H460 17.4 µM | SR 12.6 µM | DLD-1 12.7 µM | SK-MEL-28 > 10 µM | UACC-62 > 10 µM

COc1cc(Br)c(/C=N\c2cccc3ccc(OS(=O)(=O)c4ccc([N+](=O)[O-])cc4)cc23)cc1OC
inactive: SN12C > 100 µM | HOP-62 > 100 µM | SK-OV-3 > 100 µM | EKVX > 100 µM | SNB-19 63.4 µM | ACHN 12.4 µM | UACC-257 > 100 µM | A549 33.7 µM | A498 > 100 µM | OVCAR-3 > 100 µM | SF-268 > 100 µM | NCI-H23 44.1 µM | NCI-H460 > 100 µM | SR > 100 µM | DLD-1 > 100 µM | SK-MEL-28 28.6 µM | UACC-62 29.4 µM

O=C(NNC(=O)/C(=C/c1cccc([N+](=O)[O-])c1)NC(=O)c1ccccc1)Nc1ccc(Cl)cc1
inactive: SN12C 14.5 µM | HOP-62 14.3 µM | SK-OV-3 15.8 µM | EKVX 18.7 µM | SNB-19 12.7 µM | ACHN 14 µM | UACC-257 17.6 µM | A549 14.3 µM | A498 10.6 µM | OVCAR-3 11.6 µM | SF-268 15.1 µM | NCI-H23 15.1 µM | NCI-H460 14.6 µM | SR 7.74 µM | DLD-1 12.6 µM | SK-MEL-28 15.5 µM | UACC-62 14.5 µM

COC(=O)C1=C(C[S+]([O-])c2ccc([N+](=O)[O-])cc2[N+](=O)[O-])ON(C)C1c1ccccc1 (stereo unspecified)
inactive: SN12C 29.4 µM | HOP-62 39 µM | SK-OV-3 > 100 µM | EKVX > 64.6 µM | SNB-19 32.8 µM | ACHN 67.6 µM | UACC-257 50.6 µM | A549 99.8 µM | A498 > 61.8 µM | OVCAR-3 43.2 µM | SF-268 33.5 µM | NCI-H23 25.3 µM | NCI-H460 > 90.4 µM | DLD-1 33.8 µM | SK-MEL-28 24.2 µM | UACC-62 24.2 µM

[O-][Cl+3]([O-])([O-])[O-].c1ccc(C[P+]2(c3ccccc3)CCCCC2)cc1
inactive: SN12C > 100 µM | HOP-62 > 100 µM | SK-OV-3 > 100 µM | EKVX > 100 µM | SNB-19 > 100 µM | ACHN > 100 µM | UACC-257 34.4 µM | A549 > 100 µM | A498 > 100 µM | OVCAR-3 73.1 µM | NCI-H23 > 100 µM | NCI-H460 > 100 µM | SR 86.7 µM | DLD-1 > 100 µM | SK-MEL-28 > 100 µM | UACC-62 61.7 µM

O=C(Nc1cccc(C(F)(F)F)c1)C(=O)C1NC(=S)NC1=O (stereo unspecified)
inactive: SN12C > 100 µM | HOP-62 > 100 µM | SK-OV-3 > 100 µM | EKVX > 100 µM | SNB-19 > 100 µM | ACHN > 100 µM | UACC-257 31.6 µM | A549 > 100 µM | A498 > 100 µM | OVCAR-3 > 100 µM | SF-268 > 100 µM | NCI-H23 > 100 µM | NCI-H460 > 100 µM | SR > 100 µM | DLD-1 > 100 µM | SK-MEL-28 > 100 µM | UACC-62 > 100 µM

CCN1C[C@]2(C)CC[C@H](O)C34C1C(C[C@@H]32)[C@@]1(O)CC[C@H]2C[C@@H]4[C@@H]1[C@H]2O
inactive: SN12C > 100 µM | HOP-62 > 100 µM | SK-OV-3 > 100 µM | SNB-19 > 100 µM | ACHN > 100 µM | UACC-257 > 100 µM | A549 > 100 µM | OVCAR-3 > 100 µM | SF-268 > 100 µM | NCI-H23 > 100 µM | NCI-H460 > 100 µM | SR > 100 µM | DLD-1 > 100 µM | SK-MEL-28 > 100 µM | UACC-62 > 100 µM
